{"source": "patent US5023082A", "about": "“Sustained-release pharmaceutical compositions” (Yissum Research Development Company of the Hebrew …, priority 1986, dated 1991)", "assay": "Comparison of release rate of agents/salts from film-like implants", "format": "physicochemical", "excerpt": "The amount of the pharmacological agent added to the implant will vary, in a manner understood by those of ordinary skill in the art, depending upon such criteria as: […] The above criteria will depend upon such factors as the patient's age, height, weight, sex, medical history, etc. The pharmacological agent must be present in an amount sufficient to impart therapeutic effect to the pharmaceutical composition. The nature of the active agent in the implant also plays an important role in the control release mechanism. […] Different salts of the same active agent may be released at different rates."}
{"smiles": "N=C(NCCCCCCNC(=N)NC(=N)Nc1ccc(Cl)cc1)NC(=N)Nc1ccc(Cl)cc1", "note": "[chlorhexidine acetate]", "values": [{"measurement": "Release rate from film-like implant compared with tetracycline HCl", "setting": "20% w/w per protein, same implant containing 20% w/w tetracycline HCl", "value": "more slowly"}, {"measurement": "Release rate from film-like implants compared with chlorhexidine HCl", "setting": "same formulation, 20% (w/w) chlorhexidine per protein", "value": "more slowly"}]}
